Here are results for six compounds from paper PMC9816194, “Use of the head-twitch response to investigate the structure–activity relationships of 4-thio-substituted 2,5-dimethoxyphenylalkylamines” (Psychopharmacology, 2022).

What is called Ki is the dissociation constant of the complex between target and ligand, obtained from inhibition or displacement. By EC50 is commonly meant the concentration that produces a half-maximal response. As a reminder, the Emax is the maximal effect, on the per cent scale that the assay sets.

Read-outs that look alike come from different tables or passages of the source.

The test system of experiment [1] is male C57BL/6 J mice. Description: Head-twitch response (HTR), magnetometer coil recording. Type of experiment: in vivo. As to conditions: for HTR Counts (Mean ± SEM): 30 min; for ED50: Mus musculus, 0.5 h, HTR, 30 min recording, male C57BL/6 J mice; for ED50 / effect on HTR counts (in words): IP; for effect on HTR counts (in words): versus vehicle/baseline. The method, then:
Male C57BL/6 J mice (Jackson Laboratory, Bar Harbor, ME) were housed in a vivarium at the University of California San Diego (UCSD), which is an AAALAC-approved animal facility that complies with Federal and State requirements for care and treatment of laboratory animals. The mice (6–8 weeks old) were housed in a climate-controlled room with a reversed light-cycle (lights on at 19:00 h, off at 07:00 h) up to 4 animals per cage. Food and water were provided ad libitum, except during behavioral testing which occurred between 10:00 and 18:00 h. All experiments were conducted according to NIH guidelines and were approved by the UCSD animal care committee.
Head movement was recorded using a head-mounted magnet and a magnetometer coil (Halberstadt and Geyer [2013]). Briefly, mice were anesthetized, a small incision was made in the scalp, and a neodymium magnet was attached to the dorsal surface of the cranium using dental cement. Following a 1–2-week recovery period, behavioral experiments were conducted in a well-lit room with at least 7 days between sessions to avoid any carryover effects. Mice were treated with vehicle or test compound and then placed in a glass cylinder surrounded by a magnetometer coil and activity was recorded for 30 min. All test substances were administered IP dissolved in saline using an injection volume of 5 mL/kg. Coil voltage was filtered (5–10 kHz lowpass), digitized (20 kHz sampling rate), and saved to disk using a Powerlab/8SP with LabChart v 7.3.2 (ADInstruments, Colorado Springs, CO). To detect head twitches, events in the recordings were converted into scalograms using a wavelet transform and then the images were classified using a multistage approach combining the deep convolutional neural network (CNN) ResNet-50 with a support vector machine (SVM) algorithm (Halberstadt [2020]). HTR counts were analyzed using a one-way Welch analysis of variance (ANOVA). Post hoc pairwise comparisons were performed using Dunnett’s test. […] Median effective doses (ED50 values) and 95% confidence intervals were calculated using nonlinear regression (Prism ver. 9.0.2, GraphPad Software Inc, San Diego, CA, USA).

The next experiment deals with T1, h5-HT2C receptors (Homo sapiens, UniProt P28335).
T1 construct: expressed in transfected cells; host or cells: HEK 293 (transient), membrane preparations
T1 sequence (P28335 33-458): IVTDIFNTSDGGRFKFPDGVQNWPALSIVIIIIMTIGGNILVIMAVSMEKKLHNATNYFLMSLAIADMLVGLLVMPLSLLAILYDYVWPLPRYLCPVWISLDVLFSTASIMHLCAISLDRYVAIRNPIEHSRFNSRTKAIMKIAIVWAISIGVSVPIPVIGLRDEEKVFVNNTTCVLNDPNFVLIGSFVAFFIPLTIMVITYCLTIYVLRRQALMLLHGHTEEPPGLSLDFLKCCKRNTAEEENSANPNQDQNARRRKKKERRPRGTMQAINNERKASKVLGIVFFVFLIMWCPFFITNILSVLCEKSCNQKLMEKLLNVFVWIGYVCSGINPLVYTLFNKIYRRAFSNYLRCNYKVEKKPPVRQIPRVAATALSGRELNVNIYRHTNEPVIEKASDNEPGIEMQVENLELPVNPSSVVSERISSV
Description: 5-HT2C receptor binding, [3H]mesulergine displacement. As to the method:
(§1) 5-HT receptor binding affinities were assessed as previously described in detail (Luethi et al. [2018]). In brief, membrane preparations of transiently transfected HEK 293 cells were incubated with selective radioligands at concentrations equal to the corresponding Kd and then ligand displacement by the test drugs was measured. The difference between the total binding and the nonspecific binding determined in the presence of selective competitors was defined as specific binding. The following radioligands and competitors, respectively, were used: 0.40 nM [^3H]ketanserin and 10 μM spiperone (serotonin 5-HT2A receptor), 1.4 nM [^3H]mesulergine and 10 μM mianserin (serotonin 5-HT2C receptor). The IC50 values of the radioligand binding assays were determined using nonlinear regression curves for every drug in a one-site model. Ki values corresponding to the dissociation constants were calculated with the Cheng-Prusoff equation.

The next experiment has as its target T2, human 5-HT2B receptor (Homo sapiens, UniProt P41595).
T2 construct: expressed in transfected cells
Kind of experiment: Agonist activity at the 5-HT2B receptor, FLIPR calcium flux in HEK 293 cells. Type of experiment: cell-based. The settings on record: for Emax: HEK293, calcium flux, read-out: h5-HT2B Emax. As to the method: HEK 293 cells stably expressing the human 5-HT2B receptor were incubated overnight in poly-D-lysine-coated 96-well plates at a density of 50,000 cells per well and 37 °C. Thereafter, the growth medium was removed by snap inversion and 200 μL of no wash dye (FLIPR calcium 6 assay kit; Molecular Devices, Sunnyvale, CA, USA) was added to each well. The plates were incubated for 2 h at 37 °C and then placed into a FLIPR. Fifty microliters of the test drugs diluted in assay buffer was added to each well online and the increase in fluorescence was measured for 51 s. EC50 values were derived from the concentration–response curves using nonlinear regression.

For a further experiment, the system named is humans. As to conditions: cited from earlier work.
For experiment [2], the target named is T3, human 5-HT2A receptor (Homo sapiens, UniProt P28223). Kind of experiment: Agonist activity at the 5-HT2A receptor, FLIPR calcium flux in NIH-3T3 cells. It is filed as cell-based. The arrangement: expressed in transfected cells. As to conditions: for Emax: NIH3T3, calcium flux, relative to 5-HT, read-out: h5-HT2A Emax. As to the method:
NIH-3T3 cells stably expressing the human 5-HT2A receptor were incubated in HEPES-Hank’s Balanced Salt Solution (HBSS) buffer (Gibco, Zug, Switzerland; 70,000 cells/100 μL) for 1 h at 37 °C in poly-D-lysine-coated 96-well plates. Thereafter, 100 μL of dye solution (fluorescence imaging plate reader [FLIPR] calcium 5 assay kit dye solution; Molecular Devices, Sunnyvale, CA, USA) was added to each well and the plates were incubated for 1 h at 37 °C. The plates were then placed into a FLIPR and 25 μL of the test drugs diluted in HEPES-HBSS containing 250 mM probenicid was added to each well online. The increase in fluorescence was measured for 51 s, and EC50 values were derived from the concentration–response curves using nonlinear regression.
Background: Calcium flux is commonly read through the fluorescence of an indicator in the cells.

In experiment [3] the target is T3, human 5-HT2A receptor. Kind of experiment: 5-HT2A receptor binding, [3H]ketanserin displacement. The arrangement: expressed in transfected cells; host or cells: HEK 293 (transient), membrane preparations. The method, then:
as §1

In experiment [4] the target is T3, human 5-HT2A receptor. The arrangement: expressed in transfected cells; host or cells: HEK 293 (transient); method as in Luethi et al. 2018. As to conditions: 5-HT2A calcium flux assays; ref Luethi et al. 2018; cited from earlier work.
Experiment [5] has as its target T3, human 5-HT2A receptor. The arrangement: expressed in transfected cells; host or cells: HEK 293 (transient), membrane preparations. As to conditions: read-out: 5-HT2A Ki, [3H]ketanserin, cited from earlier work.
A further experiment has as its system rats. The arrangement: method as in Eshleman et al. 2014; Fantegrossi et al. 2005. As to conditions: rats trained to discriminate LSD or DMT; ref Eshleman et al. 2014; Fantegrossi et al. 2005; cited from earlier work.
Experiment [6] concerns male C57BL/6 J mice. Also noted: method as in Halberstadt et al. (2019a). As to conditions: HTR, previous experiment using similar methods; ref Halberstadt et al. (2019a); cited from earlier work.
Where [7] appears, read: read-out: ED50 µmol/kg (95% CI).

T3 sequence (P28223 whole entry): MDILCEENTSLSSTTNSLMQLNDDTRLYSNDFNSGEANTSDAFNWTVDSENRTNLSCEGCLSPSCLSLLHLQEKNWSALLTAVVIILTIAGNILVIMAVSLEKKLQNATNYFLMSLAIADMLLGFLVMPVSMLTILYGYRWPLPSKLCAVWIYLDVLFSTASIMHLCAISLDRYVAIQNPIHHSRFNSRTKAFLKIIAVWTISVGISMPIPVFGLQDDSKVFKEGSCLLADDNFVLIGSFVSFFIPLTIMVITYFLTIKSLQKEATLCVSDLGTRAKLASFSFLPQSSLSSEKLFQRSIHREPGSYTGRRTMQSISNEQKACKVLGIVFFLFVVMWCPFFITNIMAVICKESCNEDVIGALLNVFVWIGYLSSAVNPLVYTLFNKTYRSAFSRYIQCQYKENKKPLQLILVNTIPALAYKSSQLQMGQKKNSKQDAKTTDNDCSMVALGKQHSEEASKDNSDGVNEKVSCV
T2 sequence (P41595 whole entry): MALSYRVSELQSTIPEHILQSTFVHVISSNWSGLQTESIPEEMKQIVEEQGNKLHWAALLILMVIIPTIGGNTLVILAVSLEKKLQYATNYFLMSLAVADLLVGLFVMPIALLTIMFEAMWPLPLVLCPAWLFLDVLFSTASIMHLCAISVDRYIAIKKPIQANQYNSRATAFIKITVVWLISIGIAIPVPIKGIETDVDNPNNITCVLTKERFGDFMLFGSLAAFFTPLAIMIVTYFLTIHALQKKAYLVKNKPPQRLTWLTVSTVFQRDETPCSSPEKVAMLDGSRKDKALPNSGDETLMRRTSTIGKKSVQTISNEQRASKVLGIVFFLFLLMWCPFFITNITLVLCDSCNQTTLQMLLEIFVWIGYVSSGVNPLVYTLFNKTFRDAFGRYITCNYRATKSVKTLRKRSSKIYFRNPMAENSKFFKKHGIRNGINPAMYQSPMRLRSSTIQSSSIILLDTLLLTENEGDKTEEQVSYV

`COc1cc(SC)c(OC)cc1CC(C)N.Cl` (centres unmarked) [ALEPH, 2,5-Dimethoxy-4-methylthioamphetamine hydrochloride]: the “HTR Counts (Mean ± SEM)” value is 7.8 ± 1.2 in the experiment on male C57BL/6 J mice [1] (0.1 mg/kg IP); 19.4 ± 1.2 in the experiment with male C57BL/6 J mice [1] (0.3 mg/kg IP); 72.0 ± 12.1 in the experiment with male C57BL/6 J mice [1] (1 mg/kg IP); 115.0 ± 20.9 in the experiment on male C57BL/6 J mice [1] (3 mg/kg IP); 74.0 ± 13.5 in the experiment with male C57BL/6 J mice [1] (10 mg/kg IP). The ED50 in the experiment with male C57BL/6 J mice [1] (setting [7]) turned out to be 2.88 µmol/kg; with male C57BL/6 J mice [1] (read-out: ED50 mg/kg (95% CI)) it was 0.8 mg/kg. Moreover, the Ki on h5-HT2C receptors came to 355 ± 76 nM; at human 5-HT2A receptor [3], 77.8 nM. Further, the EC50 on human 5-HT2B receptor was found to be 19.2 ± 1.7 nM; on human 5-HT2A receptor [2], 10.3 ± 0.6 nM. For the same compound, the Emax is 51 ± 2.6% at human 5-HT2B receptor and 80 ± 2.3% on human 5-HT2A receptor [2]. Also, the “Human active dose range” value in the experiment on humans (ref Shulgin and Nichols 1978, Shulgin and Shulgin 1991) was 5 to 15 mg.

For `COc1cc(SCCF)c(OC)cc1CCN.Cl` [Compound 2C-T-21, 2,5-dimethoxy-4-(2-fluoroethylthio)phenethylamine hydrochloride], the “HTR Counts (Mean ± SEM)” value in the experiment with male C57BL/6 J mice [1] (0.3 mg/kg IP) was 8.8 ± 2.1; in the experiment with male C57BL/6 J mice [1] (1 mg/kg IP), 19.8 ± 2.7; in the experiment on male C57BL/6 J mice [1] (3 mg/kg IP) it was 61.8 ± 5.0; in the experiment on male C57BL/6 J mice [1] (10 mg/kg IP) it was 72.6 ± 9.4. In addition, the figures for the ED50 with male C57BL/6 J mice [1] (setting [7]) and in the experiment with male C57BL/6 J mice [1] (read-out: ED50 mg/kg (95% CI)) were 5.58 µmol/kg and 1.65 mg/kg, respectively. In addition, the Ki at h5-HT2C receptors was determined as 72.7 ± 10.6 nM; at human 5-HT2A receptor [3], 27.7 ± 6.2 nM. In addition, the results for the EC50 on human 5-HT2B receptor and on human 5-HT2A receptor [2] were 102 ± 24 nM and 9.7 ± 0.1 nM, respectively. Besides, the values for the Emax at human 5-HT2B receptor and on human 5-HT2A receptor [2] were 32 ± 1.8% and 69 ± 4.8%, respectively. For the same compound, the Human potency range with humans (dose range active as psychedelic in humans, ref Shulgin and Shulgin (1991)) is 8–12 mg ^[5]. Moreover, in the experiment on humans (p.o., ref Shulgin and Shulgin 1991, Trachsel et al. 2013), the “Human active dose range” value is 8 to 20 mg.

For `COc1cc(SCc2ccccc2)c(OC)cc1CCN.Cl` [Compound 2C-T-27, 4-benzylthio-2,5-dimethoxyphenethylamine hydrochloride], the “HTR Counts (Mean ± SEM)” value is on record as 6.0 ± 1.6 in the experiment on male C57BL/6 J mice [1] (1.5 mg/kg IP); 9.0 ± 0.8 in the experiment on male C57BL/6 J mice [1] (3 mg/kg IP); 12.8 ± 2.0 in the experiment with male C57BL/6 J mice [1] (6 mg/kg IP); 10.8 ± 3.6 with male C57BL/6 J mice [1] (12 mg/kg IP); 5.4 ± 2.0 with male C57BL/6 J mice [1] (24 mg/kg IP). For the same compound, the ED50 in the experiment with male C57BL/6 J mice [1] (setting [7]) was 7.3 µmol/kg; in the experiment with male C57BL/6 J mice [1] (read-out: ED50 mg/kg (95% CI)), 2.48 mg/kg. In the experiment on male C57BL/6 J mice [1], the “effect on HTR counts (in words)” value is given as “relatively weak”. Also, the “5-HT2A agonist efficacy (in words)” value at human 5-HT2A receptor [4] is “low efficacy partial agonists”. Besides, the Ki on human 5-HT2A receptor [5] (ref Luethi et al. (2018)) is 1.6 nM.

`CCSc1cc(OC)c(CCN)cc1OC.Cl` [Compound 2C-T-2, 2,5-dimethoxy-4-ethylthiophenethylamine hydrochloride]: the “HTR Counts (Mean ± SEM)” value with male C57BL/6 J mice [1] (0.1 mg/kg IP) was 12.2 ± 1.9; in the experiment on male C57BL/6 J mice [1] (0.3 mg/kg IP), 28.4 ± 4.7; in the experiment on male C57BL/6 J mice [1] (1 mg/kg IP), 65.2 ± 5.9; with male C57BL/6 J mice [1] (3 mg/kg IP), 36.8 ± 11.5. The ED50 came out at 1.44 µmol/kg in the experiment on male C57BL/6 J mice [1] (setting [7]) and 0.4 mg/kg with male C57BL/6 J mice [1] (read-out: ED50 mg/kg (95% CI)). For the same compound, the “maximum number of head twitches (mean ± SEM)” value in the experiment with male C57BL/6 J mice [1] (during the 30-min assessment period) stood at 65.2 ± 5.9. Moreover, the “substitution for training drug (in words)” value with rats is listed as “partial generalization”. Besides, the Ki at human 5-HT2A receptor [5] (ref Rickli et al. (2015)) was 9 nM.

As for `COc1cc(OC)c(OC)cc1CC(C)N` (centres unmarked) [TMA-2, 2,4,5-trimethoxyamphetamine], in the experiment on male C57BL/6 J mice [6], the “ED50 µmol/kg (95% CI)” value was 12.4 (8.6–17.8) ^[1] µmol/kg and the “ED50 mg/kg (95% CI)” value is 2.79 (1.94–4.01) ^[1] mg/kg.

Take `COc1cccc(CSc2cc(OC)c(CCN)cc2OC)c1.Cl` [Compound 2C-T-33, 2,5-dimethoxy-4-(3-methoxybenzylthio)phenethylamine hydrochloride]: the “HTR Counts (Mean ± SEM)” value in the experiment with male C57BL/6 J mice [1] (0.3 mg/kg IP) was 8.6 ± 2.2; with male C57BL/6 J mice [1] (1 mg/kg IP), 5.0 ± 2.8; in the experiment with male C57BL/6 J mice [1] (3 mg/kg IP), 9.6 ± 1.7; in the experiment on male C57BL/6 J mice [1] (10 mg/kg IP), 7.8 ± 0.8. Further, the “effect on HTR counts (in words)” value in the experiment with male C57BL/6 J mice [1] is “did not produce a significant increase in HTR counts”. At human 5-HT2A receptor [4], the “5-HT2A agonist efficacy (in words)” value is reported as “low efficacy partial agonists”. Further, the Ki at human 5-HT2A receptor [5] (ref Luethi et al. (2018)) is 1.7 nM.
